Results from patent US10683297B2 (Sunshine Lake Pharma Co., Ltd., priority 2017, dated 2020).

Columns and labels:
[1] = Compound stability in rat liver microsomes; type: in vitro ADME; details: for CLint scaled at 5 μM: liver microsomes, pH 7.4, in vivo CLint extrapolated from rat liver microsome incubation; for half-life at 5 μM: rat liver microsomes 0.5 mg protein/mL, compound 5 μM, NADPH 1.0 mM, pH 7.4, 37° C., read-out: Rat T1/2
Method: (§1) The LC/MS/MS system used in the analysis consists of an Agilent 1200 Series vacuum degasser, binary pump, well-plate autosampler, thermostatted column compartment, the Agilent G6430 Triple Quadrupole Mass Spectrometer with an electrosprayionization (ESI) source. Quantitative analysis was carried out using MRM mode. The parameters for MRM transitions are in the Table A.
(§2) An Agilent XDB-C18, 2.1×30 mm, 3.5 μM column was used for the analysis. 5 μL of the samples were injected. Analysis condition: The mobile phase was 0.1% formic acid in water (A) and 0.1% formic acid in methanol (B). The flow rate was 0.4 mL/min. And the gradient of Mobile phase was in the Table B.
(§3) Alternatively, an Agilent 6330 series LC/MS/MS spectrometer equipped with G1312A binary pumps, a G1367A autosampler and a G1314C UV detector were used in the analysis. An ESI source was used on the LC/MS/MS spectrometer. The analysis was done in positive ion mode as appropriate and the MRM transition for each analyte was optimized using standard solution. A Capcell MP-C18 100×4.6 mm I.D., 5 uM column (Phenomenex, Torrance, Calif., USA) was used during the analysis. The mobile phase was 5 mM ammonia acetate, 0.1% MeOH in water (A): 5 mM ammonia acetate, 0.1% MeOH in acetonitrile (B) (70/30, v/v). The flow rate was 0.6 mL/min. Column was maintained at ambient temperature. 20 μL of the samples were injected.
(§4) Human or rat liver microsomes incubations were conducted in duplicate in polypropylene tubes. The typical incubation mixtures consisted of human or rat liver microsomes (0.5 mg protein/mL), compounds of interest (5 μM) and NADPH (1.0 mM) in a total volume of 200 μL potassium phosphate buffer (PBS, 100 mM, pH 7.4). Compounds were dissolved in DMSO and diluted with PBS such that the final concentration of DMSO was 0.05%. The enzymatic reactions were commenced with the addition of […] after a 3-min preincubation and incubated in a water bath open to the air at 37° C. Reactions were terminated at various time points (0, 5, 10, 15, 30, 60 min) by adding equal volume of ice-cold acetonitrile. The samples were stored at […] until LC/MS/MS assays.
(§5) The concentrations of compounds in the incubation mixtures of human or rat liver microsomes were determined by a LC/MS/MS method. The ranges of the linearity in the concentration range were determined for each tested compounds.
(§6) A parallel incubation was performed using denatured microsomes as the negative control, and reactions were terminated at various time points (0, 15, 60 min) after incubation at 37° C.
(§7) Dextromethorphan (70 μM) was selected as the positive control, and reactions were terminated at various time points (0, 5, 10, 15, 30, 60 min) after incubation at 37° C. Both positive and negative control samples were included in each assay to ensure the integrity of the microsomal incubation system.
(§8) The concentrations of compounds in human or rat liver microsome incubations were plotted as a percentage of the relevant zero time point control for each reaction. The in vivo CLint were extrapolated (ref.: Naritomi, Y.; Terashita, S.; Kimura, S.; Suzuki, A.; Kagayama, A.; and Sugiyama, Y.; Prediction of human hepatic clearance from in vivo animal experiments and in vitro metabolic studies with liver microsomes from animals and humans. Drug Metab. Dispos., 2001, 29: 1316-1324).

[2] = Compound stability in human liver microsomes; type: in vitro ADME; details: for half-life at 5 μM: human liver microsomes 0.5 mg protein/mL, compound 5 μM, NADPH 1.0 mM, pH 7.4, 37° C., read-out: Human T1/2; for CLint scaled at 5 μM: liver microsomes, pH 7.4, in vivo CLint extrapolated from human liver microsome incubation
Method: as §1, §2, §3, §4, §5, §6, §7, §8

[3] = Pharmacokinetics after intravenous and oral administration in rats; type: in vivo; details: for Clearance (CL) after iv dosing / AUC(0-t) / half-life / Vd: dose 1 mg/kg (Ex. 9: 0.6, Ex. 18: 0.5, Ex. 50: 0.96 mg/kg), iv dosing; for AUC(0-t) / half-life / Vd / bioavailability: rat, plasma; for Vd: read-out: Vss; for bioavailability: oral (generally 5 or 10 mg/kg) versus iv dosing, read-out: F (oral bioavailability)
Method: as §1, §2, §3
The compounds disclosed herein are assessed in pharmacokinetic studies in mice, rats, dogs or monkeys. The compounds are administered as a water solution, 2% HPMC+1% TWEEN®80 in water solution, 5% DMSO+5% solutol in saline, 4% MC suspension or capsule. For the intravenous administration, the animals are generally given at about 0.5, 0.6, 1 or 2 mg/kg dose. For the oral (p.o.) dosing, mice and rats are generally given 5 or 10 mg/kg dose, and dogs and monkeys are generally given 10 mg/kg dose. The blood samples (0.3 mL) are drawn at 0.25, 0.5, 1.0, 2.0, 3.0, 4.0, 6.0, 8.0, 12 and 24 h time points or 0.083, 0.25, 0.5, 1.0, 2.0, 4.0, 6.0, 8.0 and 24 h time points and centrifuged at 3,000 or 4000 rpm for 2 to 10 min. The plasma solutions are collected, and stored at […] until analyzed by LC/MS/MS as described above.

JAK1 (h) = molecular target: T1, JAK1 (h) (Homo sapiens, UniProt P23458); test: JAK1 (h) kinase assay; type: biochemical; details: [γ-33P-ATP] 10 μM or KM values; 40 minutes at room temperature
T1 construct: purchased Millipore UK Ltd (assays performed there as a service)
Method: The above assay procedure can be used to determine the IC50 for inhibition and/or the inhibition constant, Ki. […] The IC50 value is estimated by preparing a 10 point curve using a ½ log dilution series (for example, a typical curve may be prepared using the following compound concentrations: 3 μM, 1 μM, 0.3 μM, 0.1 μM, 0.03 μM, 0.01 μM, 0.003 μM, 0.001 μM, 0.0003 μM and 0 μM).
JAK1 (h) is incubated with 20 mM Tris/HCl pH 7.5, 0.2 mM EDTA, 500 μM […], 10 mM MgAcetate and [γ-^33P-ATP] […] The reaction is initiated by the addition of the MgATP mix. After incubation for 40 minutes at room temperature, the reaction is stopped by the addition of 3% phosphoric acid solution. 10 μL of the reaction is then spotted onto a P30 filtermat and washed three times for 5 minutes in 75 mM phosphoric acid and once in methanol prior to drying and scintillation counting.
The kinase assays described herein were performed at Millipore UK Ltd, Dundee Technology Park, Dundee DD2 1SW, UK.

T1 sequence (P23458 whole entry): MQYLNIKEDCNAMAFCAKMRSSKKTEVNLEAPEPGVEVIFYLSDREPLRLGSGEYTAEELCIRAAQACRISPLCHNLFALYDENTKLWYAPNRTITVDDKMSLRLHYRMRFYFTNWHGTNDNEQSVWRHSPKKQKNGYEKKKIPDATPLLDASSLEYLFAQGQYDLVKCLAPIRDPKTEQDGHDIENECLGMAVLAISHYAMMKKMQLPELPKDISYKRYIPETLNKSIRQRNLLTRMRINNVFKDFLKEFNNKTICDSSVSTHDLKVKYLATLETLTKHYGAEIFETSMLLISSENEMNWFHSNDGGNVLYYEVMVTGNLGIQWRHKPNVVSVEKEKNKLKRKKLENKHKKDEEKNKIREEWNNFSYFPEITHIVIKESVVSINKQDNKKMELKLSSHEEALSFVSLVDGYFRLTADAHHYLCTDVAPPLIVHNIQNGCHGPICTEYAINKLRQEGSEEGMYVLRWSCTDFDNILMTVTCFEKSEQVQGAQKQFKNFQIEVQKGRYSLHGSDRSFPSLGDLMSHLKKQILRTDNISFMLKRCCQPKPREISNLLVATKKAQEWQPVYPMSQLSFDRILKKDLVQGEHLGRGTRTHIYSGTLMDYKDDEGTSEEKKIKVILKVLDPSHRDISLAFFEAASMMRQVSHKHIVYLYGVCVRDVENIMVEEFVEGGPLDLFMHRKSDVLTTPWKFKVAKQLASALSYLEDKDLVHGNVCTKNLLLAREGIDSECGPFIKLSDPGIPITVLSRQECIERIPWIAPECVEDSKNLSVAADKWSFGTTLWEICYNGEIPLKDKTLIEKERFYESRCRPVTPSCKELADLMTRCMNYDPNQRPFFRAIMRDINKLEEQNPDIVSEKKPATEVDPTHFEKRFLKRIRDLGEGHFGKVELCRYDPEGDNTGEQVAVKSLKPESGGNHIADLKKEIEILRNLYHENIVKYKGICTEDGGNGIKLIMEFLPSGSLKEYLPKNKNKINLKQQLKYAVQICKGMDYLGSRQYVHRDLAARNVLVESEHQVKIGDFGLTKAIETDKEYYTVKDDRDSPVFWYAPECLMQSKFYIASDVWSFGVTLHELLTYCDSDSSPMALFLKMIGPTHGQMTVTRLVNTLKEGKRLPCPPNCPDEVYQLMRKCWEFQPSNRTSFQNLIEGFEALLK

Compound | CLint scaled at 5 μM [1] [mL/min/kg] | half-life at 5 μM [1] [min] | half-life at 5 μM [2] [min] | CLint scaled at 5 μM [2] [mL/min/kg] | Clearance (CL) after iv dosing [3] [mL/min/kg] | AUC(0-t) [3] [ng·h/mL] | half-life [3] [min] | Vd [3] [L/kg] | bioavailability [3] [%] | IC50 (JAK1 (h)) [nM]
Cc1c(Nc2ncc(Cl)c(NC3CCN(c4ccc(C#N)nn4)CC3)n2)ccn2c(C)cnc12 [Example 29, 6-(4-((5-chloro-2-((3,8-dimethylimidazo[1,2-a]pyridin-7-yl)amino)pyrimidin-4-yl)amino)piperidin-1-yl)pyridazine-3-carbonitrile] | 76.8 | 32.4 | 43.9 | 39.6 | 22.3 | 751 | 39.6 | 1.16 | 38.5 | –
N#Cc1ccc(N2CCC(Nc3nc(Nc4ccn5ccnc5c4)ncc3Cl)CC2)nn1 [Example 4, 6-(4-((5-chloro-2-(imidazo[1,2-a]pyridin-7-ylamino)pyrimidin-4-yl)amino)piperidin-1-yl)pyridazine-3-carbonitrile] | 75.4 | 32.9 | 22.3 | 78.1 | 19 | 909 | 43.8 | 1.05 | 35.1 | –
CC(O)Cn1cnc2cc(Nc3ncc(Cl)c(NC4CCN(c5ccc(C#N)cn5)CC4)n3)cnc21 (stereo not drawn) [Example 52, 6-(4-((5-chloro-2-((3-(2-hydroxypropyl)-3H-imidazo[4,5-b]pyridin-6-yl)amino)pyrimidin-4-yl)amino)piperidin-1-yl)nicotinonitrile] | 85.1 | 29.2 | 47.8 | 36.4 | 15.2 | 1090 | 51.6 | 0.96 | 34.1 | –
N#Cc1ccc(N2CCC(Nc3nc(Nc4ccc5c(c4)ncn5CC4CC4)ncc3Cl)CC2)nn1 [Example 63, 6-(4-((5-chloro-2-((1-(cyclopropylmethyl)-1H-benzo[d]imidazol-5-yl)amino)pyrimidin-4-yl)amino)piperidin-1-yl)pyridazine-3-carbonitrile] | – | – | – | – | – | – | – | – | – | 0.4
Cc1nc2cc(Nc3ncc(Cl)c(NC4CCN(c5ccc(C#N)nn5)CC4)n3)ccn2c1C [Example 16, 6-(4-((5-chloro-2-((2,3-dimethylimidazo[1,2-a]pyridin-7-yl)amino)pyrimidin-4-yl)amino)piperidin-1-yl)pyridazine-3-carbonitrile] | – | – | – | – | – | – | – | – | – | 0.3
CN(c1nc(Nc2ccc3ncnn3c2)ncc1Cl)C1CCN(c2ccc(C#N)cn2)CC1 [Example 9, 6-(4-((2-([1,2,4]triazolo[1,5-a]pyridin-6-ylamino)-5-chloropyrimidin-4-yl) (methyl)amino)piperidin-1-yl)nicotinonitrile] | 303 | 8.21 | 71.9 | 24.2 | 20.8 | 547 | 48.6 | 1.13 | 69.1 | –
Cc1nc2ccc(Nc3ncc(Cl)c(NC4CCN(c5ccc(C#N)nn5)CC4)n3)cn2n1 [Example 34, 6-(4-((5-chloro-2-((2-methyl-[1,2,4]triazolo[1,5-a]pyridin-6-yl)amino)pyrimidin-4-yl)amino)piperidin-1-yl)pyridazine-3-carbonitrile] | 87.5 | 28.4 | 125 | 13.9 | 10.5 | 1560 | 72 | 1.53 | 46.9 | –

The remaining lines, values ahead:

CLint scaled at 5 μM [1] [mL/min/kg] | half-life at 5 μM [1] [min] | half-life at 5 μM [2] [min] | CLint scaled at 5 μM [2] [mL/min/kg] | Clearance (CL) after iv dosing [3] [mL/min/kg] | AUC(0-t) [3] [ng·h/mL] | half-life [3] [min] | Vd [3] [L/kg] | bioavailability [3] [%] | IC50 (JAK1 (h)) [nM] | Compound
193 | 12.9 | 15.1 | 115 | 9.33 | 1830 | 84.6 | 0.65 | 38.6 | – | CN(C)C(=O)c1nc2cc(Nc3ncc(Cl)c(NC4CCN(c5ccc(C#N)cn5)CC4)n3)ccn2n1 [Example 83, 7-((5-chloro-4-((1-(5-cyanopyridin-2-yl)piperidin-4-yl)amino)pyrimidin-2-yl)amino)-N,N-dimethyl-[1,2,4]triazolo[1,5-a]pyridine-2-carboxamide]
634 | 3.92 | 8.52 | 204 | 23.8 | 714 | 47.4 | 0.95 | 36.6 | – | CC(O)Cn1ccc2cc(Nc3ncc(Cl)c(NC4CCN(c5ccc(C#N)cn5)CC4)n3)cnc21 (stereo not drawn) [Example 54, 6-(4-((5-chloro-2-((1-(2-hydroxypropyl)-1H-pyrrolo[2,3-b]pyridin-5-yl)amino)pyrimidin-4-yl)amino)piperidin-1-yl)nicotinonitrile]
– | – | – | – | – | – | – | – | – | 2 | CC(C)(O)c1nc2cc(Nc3ncc(Cl)c(NC4CCN(c5ccc(C#N)cn5)CC4F)n3)ccn2n1 (stereo not drawn) [Example 89, 6-(4-((5-chloro-2-((2-(2-hydroxypropan-2-yl)-[1,2,4]triazolo[1,5-a]pyridin-7-yl)amino)pyrimidin-4-yl)amino)-3-fluoropiperidin-1-yl)nicotinonitrile]
17.2 | 144 | 183 | 9.5 | 5.33 | 3110 | 156 | 0.53 | 57.6 | – | Cc1nc2cc(Nc3ncc(Cl)c(NC4CCN(c5ccc(C#N)nn5)CC4)n3)ccn2n1 [Example 35, 6-(4-((5-chloro-2-((2-methyl-[1,2,4]triazolo[1,5-a]pyridin-7-yl)amino)pyrimidin-4-yl)amino)piperidin-1-yl)pyridazine-3-carbonitrile]
